# Measured values taken from patent US7880021B2, “Compounds and kits for the detection and the quantification of cell apoptosis” (Centre National de la Recherche Scientifique (CNRS), priority 2005, dated 2011).
# Assays:
# [1] = system: human lymphoid cell line CEM T; experiment: Toxicity test by flow cytometry using PI; format: cell-based; details: 1 μM F2N12S; 0.5, 1 and 4 hours incubation
# Procedure: The toxicity of the F2N12S molecules was tested by flow cytometry using PI (19 μM). Cells were washed twice as described above and separated in nine batches: three batches for control measurements, three batches with 10^-7 M F2N12S and three batches with 10^-6 M F2N12S. The batches were incubated for 0.5 hour, 1 hour and 4 hours, respectively. The 488 nm line of an argon laser was used as the excitation light source. Emission was collected by using the 630FD22 filter.
# Next, the cytotoxicity of the newly synthesized probe, F2N12S, was evaluated on the human lymphoid cell line CEM T. F2N12S was added at 0.1 μM (working concentration) and 1 μM and, incubated for different times (0.5, 1 and 4 hours).
# [2] = Fluorescence properties of the probes (absorption maximum, band resolution); format: physicochemical
# Description: The probe TCN12S is an analog of F2N12S and was synthesized to improve the fluorescence properties. Indeed, substitution of the 2-phenyl group with 2-thienyl shifts the absorption maximum from 420 nm to 445 nm, making this probe suitable for excitation with a He/Cd laser (442 nm). Moreover, the resolution between the two emission bands increases from 90 nm (F2N12S) to 120 nm (TCN12S), favoring two-color ratiometric detection.
# CEM T cells [3] = experiment: Two-color confocal ratiometric imaging of normal and apoptotic cells; format: cell-based, human
# Procedure: FIG. 5: Confocal fluorescence ratiometric images of CEM cells stained with F2N12S: normal cells (a); apoptotic cells, obtained by FITC-annexin based sorting of cells treated with actinomycin (b); and actinomycin-treated without cell sorting (c). The images were recorded after a 10 min incubation of the probe with the cells. Scale bar, 10 μm.
# Human lymphoid CEM T cells were cultured in X-vivo 15 medium (Cambrex, France) at 37° C. in humidified 5% CO2 atmosphere. Cell viability was checked by trypan blue exclusion. Cells were seeded at 5×10^5 cells/ml in the presence or absence of actinomycin D (0.5 μg/ml) for 18 h. Cells were pelleted by centrifugation at 1500 rpm for 5 min and resuspended at 1×10^6 cells/ml in X-vivo 15 medium for experiments.
# (§1) The cells were washed twice by HBSS before each experiment to eliminate fetal bovine serum. In sorting experiments, cells were resuspended in the binding buffer and labeled with the annexin V-FITC kit. For fluorescence measurements with the probe of the invention F2N12S (fluorometry, flow cytometry and confocal microscopy), cells were resuspended in HBSS with 0.1 μM F2N12S. Then, the cell suspension was placed in a shaker bath for 10 min in the incubator. The staining pattern of the cells was checked with a Confocal Imaging System MRC-1024 (BioRad) to ascertain that fluorescence originates from the plasma membrane.
# For collecting cell images, a Laser Scanning Confocal Imaging System MRC-1024 (Bio-Rad) was used. Cells in chambered cover glass were prepared by following the preparation procedure described above. The 442 nm line of a HeCd laser was used as the excitation light source. Emission was collected by using two filters: 485/30 for the N* band and 585LP for the T* band. Collected images were analyzed by the Amira 3.0 software.
# Two-color confocal fluorescence microscopy of CEM T cells stained with F2N12S was performed. Emission light was collected in two spectral regions: at 470-500 nm to monitor the emission of the N* band and above 585 nm to collect the emission of the T* band. Ratiometric images were obtained by dividing the intensity of the T* band by the intensity of the N* band and were used to monitor the cell plasma membrane changes induced by addition of actinomycin D (FIG. 5, a-c).
# 3T3 fibroblasts = experiment: Flow cytometry F2N12S intensity ratio in 3T3 fibroblasts; format: cell-based; details: data not shown
# Description: The probe of the invention F2N12S has been combined with PI and the fluorescence intensities of PI have been represented as a function of the T*/N* ratio of F2N12S (FIG. 6c). In this case, the populations of apoptotic and dead cells are clearly discriminated by using the differences in the PI intensities. […] This conclusion was further strengthened when the populations discriminated by the F2N12S/PI couple were colored according to their response with the annexin V-FITC/PI couple (FIG. 6d).
# CEM T cells [4] = experiment: Emission spectra in living and apoptotic cell suspensions, and Ca2+ dependence; format: cell-based, human
# Procedure: FIG. 3: Emission spectra of the probe F2N12S in living (solid line) and apoptotic (dash line) CEM cells. Excitation wavelength was 400 nm. Final probe concentration was 0.1 μM.
# FIG. 4: Ca^2+ dependence of F2N12S emission spectra in apoptotic CEM cells. The excitation wavelength was 400 nm. The spectra were recorded at Ca^2+ concentrations of 0.2, 0.4, 0.8, 1.2 and 2 mM and normalized. Final probe concentration was 0.1 μM.
# Human lymphoid CEM T cells were cultured in X-vivo 15 medium (Cambrex, France) at 37° C. in humidified 5% CO2 atmosphere. Cell viability was checked by trypan blue exclusion. Cells were seeded at 5×10^5 cells/ml in the presence or absence of actinomycin D (0.5 μg/ml) for 18 h. […]
# as §1, with “In sorting experiments, cells were resuspended in the binding buffer and labeled with the annexin V-FITC kit.” left out, “Then, the cell suspension was placed in a shaker bath for 10 min in the incubator.” left out
# Fluorescence spectra were recorded on a FLUOROMAX-3® (spectrofluorometer) (JobinYvon Horiba). The excitation wavelength for fluorescence emission spectra of F2N12S probes was 400 nm. […]
# L 929 cells = experiment: Confocal fluorescence imaging of L 929 cells stained with 3-HF probes; format: cell-based
# Procedure: FIG. 1: (a) Formula and location of 3-HF probes of the prior art F and F2N8 and of the probe of the invention F2N12S in phospholipid bilayers (a). Confocal fluorescence images of L 929 cells stained with probes F (b), F2N8 (c) and F2N12S (d). All images were obtained by collecting fluorescence in the 585-700 nm wavelength range 10 min after probe addition. Scale bar, 10 μm (b).
# as §1
# For collecting cell images, a Laser Scanning Confocal Imaging System MRC-1024 (Bio-Rad) was used. […] Collected images were analyzed by the Amira 3.0 software.
# Confocal laser microscopy have been performed on adherent L 929 cells stained with these first generation molecules (FIG. 1.b, c). The obtained fluorescence images reveal a rapid penetration of these dyes inside the cells. […]
# [5] = actinomycin D-treated cells not sorted by cytometry
substance,measurement,setting,value
"1-dodecanaminium, N-[[2-[4-Diethylaminophenyl]-3-hydroxychromon-6-yl]-methyl]-N-methyl-N-(3-sulfopropyl)-, inner salt [F2N12S]",percentage of dead cells,[1],≤ 4%
same,absorption maximum,[2],420 nm
same,resolution between the two emission bands,[2],90 nm
same,"fluorescence intensity ratio T*/N*, apoptotic cells",CEM T cells [3]; [5],~0.25
same,"fluorescence intensity ratio T*/N*, living cells",CEM T cells [3]; [5],~1
same,fluorescence intensity ratio T*/N* at the plasma membrane,"CEM T cells [3]; apoptotic cells obtained by cell sorting, average",around 0.25
same,"change in the T*/N* ratio, non-treated versus apoptotic cells",CEM T cells [3]; confocal imaging,4 fold
same,fluorescence intensity ratio T*/N* at the plasma membrane,"CEM T cells [3]; non-treated cells, N* 470-500 nm, T* above 585 nm",~1
same,F2N12S intensity ratio values compared with T lymphoblastoid cells,3T3 fibroblasts,very similar
same,"relative intensity of the short-wavelength band, apoptotic versus living cells","CEM T cells [4]; actinomycin D-induced apoptosis, cells sorted with FITC-annexin, excitation 400 nm, probe 0.1 μM",~2 fold
same,dependence of the response on Ca2+ concentration,"CEM T cells [4]; apoptotic cells, Ca2+ 0-2 mM",insensitive
same,time the probes stay in the plasma membrane (whole observation time),"L 929 cells; L 929 cells in HBSS buffer, limited by lifetime of the cells",approx. 1 hour
same,location of probe fluorescence in stained cells,"L 929 cells; adherent L 929 cells, images 10 min after probe addition, 585-700 nm",emission exclusively from the plasma membranes
